Measurements reported in patent US6306857A, “Methods for treating or preventing alzheimer's disease using substituted 1-aryl-3-piperazin-1'-yl propanones” (Molecular Geriatrics Corporation, priority 1999, dated 2001).

Legend:
[1] = tested on: PHF epitope levels in frontal (Brodman Area 10) and temporal (Brodman Area 38) brain tissue; test: ALZ-EIA of PHF (ADAP) levels in post-mortem brain tissue of patients chronically treated with chlorpromazine; format: in vivo, human; conditions: chronic treatment; frontal and temporal tissue at autopsy; vs normal controls and AD (FIGS. 4A, 4B)
Method: FIG. 4A is a chart showing relative ADAP concentrations in Brodman Area 10 in Alzheimer's Disease patients, normal controls and patients treated with chlorpromazine (Rx).
FIG. 4B is a chart showing relative ADAP concentrations in Brodman Area 38 in Alzheimer's Disease patients, normal controls and patients treated with chlorpromazine (Rx).
Frontal and cortical brain tissue specimens obtained at autopsy from patients chronically treated with chlorpromazine were analyzed using the ALZ-EIA method previously described (Ghanbari, H A, et al, JAMA, 263, 2907, 1990). The results are shown in FIGS. 4A and 4B frontal (Broadman area 10) and temporal (Broadman area 38) regions, respectively. The brain tissue (post-mortem) from approximately the same number of (age matched) normal controls and Alzheimer's Disease patients were also analyzed and are presented in these figures as negative and positive controls (for normal and AD, respectively).

[2] = tested on: PHF epitopes in MSN1a cells (PHF-1 immunoreactivity); test: PHF-1 immunoreactivity (western blot) in okadaic acid treated MSN1a cells; format: cell-based, human
Method: FIG. 3 is a western blot showing PHF-1 immunoreactivity in lysates from control and chlorpromazine treated MSN cells treated with okadaic acid.
These compounds are effective at micromolar concentrations, with increased potency being evident when cells are treated prior to the addition of okadaic acid. The effective concentrations appear to be in the range at which these drugs are present in the brain following chronic treatment of psychiatric patients (Svendsen, C N, Psychopharmacology, 90, 316-321, 1986).
To determine the effect of chlorpromazine on the paired helical filament epitopes associated with AD, MSN1a cells expressing paired helical filament epitopes were incubated with […] chlorpromazine (CPZ) or a 0.2% DMSO vehicle control for 2 hours at 37° C. The cells were isolated by centrifugation, boiled for 10 minutes and […] protein from the resulting heat stable supernatants were loaded per lane on an SDS-PAGE gel. The gel was electrophoretically transferred to nitrocellulose membrane and then immunostained with PHF-1. […] The use of the MSN1a cell culture model for screening of novel compounds for therapeutic activity in AD is, therefore, quite warranted.

[3] = tested on: TG3 immunoreactivity in OKA treated MSN1a cells; test: inhibition of TG3 immunoreactivity in OKA treated MSN1a cells (ELISA); format: cell-based, human; conditions: MSN1a cell culture model, TG3
Method: Therefore, the therapeutic activity of the compounds of the invention was assessed by the ability of these agents to affect the production of abnormally phosphorylated epitopes pertinent to the production of PHFs of AD, utilizing a human neuroblastoma cell line (MSN1a) in the presence of the protein phosphatsse inhibitor, okadaic acid (OKA).
This assay can thus be used to determine whether a drug is capable of preventing or intervening in AD by attenuating the production of abnormally phosphorylated paired helical filament epitopes associated with AD. To determine whether a drug is capable of preventing or intervening in AD activity, the MSN1a cells containing tau and associated proteins are treated with OKA capable of greatly increasing immnunoreactivity of the MSN1a cells with AD specific monoclonal antibodies. Then, either prior to or concomitantly with OKA treatment, a compound of the present invention is added to the culture. If the compound prevents the induction of the AD epitopes in the MSN1a cells treated with OKA, then it is said to have anti-AD activity. If the AD-specific antibodies are highly reactive with the neuroblastoma cells following OKA treatment in the presence of compound, then the compound is said to be ineffectual against AD.
The MSN1a human neuroblastoma line was subcloned from a population of MSN cells obtained from the laboratory of Dr. Peter Davies (Albert Einstein College of Medicine, New York, N.Y.). Cells were grown and maintained in flasks in RPMI 1640 medium, supplemented with 15% fetal calf serum, 100 U/ml penicillin, 100 U/ml Streptomycin, 0.5 ug/ml fungizone under 7.5% CO2 at 37° C.
Stock solutions of drugs were prepared by dissolving the anhydrous powders to final concentrations of either 10 or 20 mM in 50% aqueous or 100% dimethyl sulfoxide (DMSO), respectively. […]
MSN cells grown in 225 cm^2 flasks are removed from the incubator, their medium decanted and replaced with 50 ml pre-warmed KRH. […] The supernatants are discarded and the cell pellets are resuspended, the cells counted and diluted to a density of 2×10^4 cells/50 ml. […]

[4] = tested on: PHF-1 and TG3 epitopes in MSN1a cells; test: generation of Alzheimer epitopes (PHF-1 and TG3) in MSN1a cells by okadaic acid; format: cell-based, human
Method: Conditions were established which led to hyperphosphorylation of the proteins known to be involved in PHF formation. Using monoclonal antibodies PHF-1 and TG3 generated to human PHF preparations, the effects of a variety of manipulations of the phosphorylation state of these proteins were tested. These tests required that most of the abnormal epitopes recognized by these monoclonal antibodies in the human Alzheimer brain should be generated in the MSN1a cells. […] These epitopes are either absent or present at a very low level in untreated MSN1a cells.
Shown in FIG. 2A are bar graphs (percent of AD) of the ELISA immunoreactivity of brain preparations (AD or normal) to either PHF-1 or TG3. Shown in FIG. 2B are bar graphs (percent of MSN+) of the ELISA immunoreactivity of MSN1a cell preparations (minus or plus okadaic acid) to either PHF-1 or TG3. The MSN1a cell preparations plus vs minus okadaic acid closely parallel the AD vs nomal brain preparations. […] The cell culture system according to the invention in which epitopes characteristic of PHF can be readily generated and subsequently recognized by the specific Alzheimer brain specific antibodies provides an assay suitable for screening compounds for their ability to block the production of these phosphorylated epitopes.

## CN(C)CCCN1c2ccccc2Sc2ccc(Cl)cc21 [Chlorpromazine, chlorpromazine]
[1]
  PHF epitope levels in brain of chlorpromazine treated patients: low PHF epitope levels similar to normal controls
[2]; 100 mM chlorpromazine, 2 hours at 37° C., PHF-1 immunostain
  production of paired helical filament epitopes by the MSN1a cells: greatly decreased the production of paired helical filament epitopes
[2]; MSN1a cells treated with okadaic acid, Alzheimer's Disease specific antibodies (cf. FIG. 3)
  inhibition of the expression of PHF epitopes: markedly inhibit the expression of PHF epitopes
[3]
  inhibition of the production of aberrantly phosphorylated epitopes: effective in inhibiting the production of these aberrant phosphorylated epitopes

## C=C1[C@@H](O)[C@@H]2O[C@]3(CC[C@H](/C=C/[C@@H](C)[C@@H]4CC(C)=C[C@@]5(O[C@H](C[C@@](C)(O)C(=O)O)CC[C@H]5O)O4)O3)CC[C@H]2O[C@@H]1[C@@H](O)C[C@H](C)[C@H]1O[C@@]2(CCCCO2)CC[C@H]1C [okadaic acid]
[4]
  generation of the epitopes associated with Alzheimer brain specific monoclonal antibodies: found to generate the epitopes
